This note sets out measurements from patent EP0934940A1, “CYTOKINE PRODUCTION INHIBITORS, TRIAZEPINE COMPOUNDS, AND INTERMEDIATES THEREOF” (Japan Tobacco Inc., priority 1996, dated 1997).

The subject of test [1] is IL-6. Briefly: Inhibitory activity on IL-6 production from LPS-stimulated human PBMC (ELISA). It is filed as cell-based. The settings on record: 24 h. How it is done:
(§1) Inhibitory activity on cytokine production from human PBMC (peripheral blood mononuclear cell)
(§2) PBMC fractions were isolated from human blood using a mono-poly resolving medium. The cells (PBMC) were cultured in 5% FCS (fetal calf serum)/RPMI1640 medium. Thereafter, the test compound was added to the final concentration of 0.001-10 µM, and LPS (lipopolysaccharide) was added to the final concentration of 10 µg/ml. After incubatioin for 24 hours, the supernatant was separated and freeze stocked at -80°C.
(§3) On the day of experiment, the supernatant was thawed and the production amount of cytokine was measured by ELISA. IL-6 was assayed using [(h)IL-6] human, ELISA system (Amersham); TNF-α was assayed using [(h)TNF-α] human, ELISA system (Amersham); GM-CSF was assayed using human GM-CSF immunoassay (R&D systems); and IL-8 was assayed using human IL-8 immunoassay (R&D systems). The determination method followed the method of each kit. The results are expressed in IC50.

The test system of test [2] is TNF-α. The test can be described thus: Inhibitory activity on TNF-α production from LPS-stimulated human PBMC (ELISA). The settings on record: Homo sapiens, PBMC, 24 h. It is filed as cell-based. As to the method:
as §1, §2, §3

Test [3] relates to IL-6. Briefly: Inhibitory activity on in vivo IL-6 production by LPS stimulation. The settings on record: male ICR mice, LPS stimulation i.v., test compound 10 mg/kg p.o. at the same time, blood two hours later, relative to 0.5% CMC-Na group; for inhibition in vivo at 10 mg/kg: Mus musculus, po, 2 h, read-out: Inhibtion (%) of plasma IL-6 production (10 mg/kg, p.o.). As to the method:
Inhibitory activity on in vivo IL-6 production by LPS stimulation
LFS (0.3 mg/kg) was intravenously administered to male ICR mice (6-week-old) fasted for 24 hours. At the same time, the test compound suspended in 0.5% CMC-Na ( carboxymethylcellulose sodium) was orally administered at the dose of 10 mg/kg.
Two hours later, blood was taken from eyegrounds. The blood was centrifuged, and the plasma fraction was diluted and quantitatively assayed for IL-6 in blood by ELISA (Endogen EM-IL6). The inhibitory percentage of the group administered with the test compound was expressed relative to the amount of IL-6 in blood of the cup administered with 0.5% CMC-Na.

[4] abbreviates: read-out: IL-6 IC50 (µM), human PBMC, LPS 10 µg/ml, incubation 24 hours, supernatant ELISA.
Setting [5] is: read-out: TNF-α IC50 (µM), human PBMC, LPS 10 µg/ml, incubation 24 hours, supernatant ELISA.
Setting [6] is: human PBMC, LPS 10 µg/ml, incubation 24 hours, supernatant ELISA, read-out: IL-6 IC50.
Where [7] appears, read: human PBMC, LPS 10 µg/ml, incubation 24 hours, supernatant ELISA, read-out: TNF-α IC50.

Read-outs that look alike come from different tables or passages of the source. Bounds are passed on as bounds.

For the compound `Cc1nnc2n1-c1ccccc1C(c1ccccc1)=NN2Cc1ccncc1` [compound 95], the IC50 in test [1] (setting [4]) turned out to be 0.34 µM; in test [2] (setting [5]), 0.03 µM. On the same counts, the results for `Cc1sc2c(c1C)C(c1ccccc1)=NN(Cc1ccncc1)c1nnc(C)n1-2` [compound 125] are 0.02 µM and < 0.01 µM. As to `CCc1cc2c(s1)-n1c(C)nnc1N(Cc1cc[n+]([O-])cc1)N=C2c1ccc(Cl)cc1` [Example 4, 4-[4-(4-Chlorophenyl)-2-ethyl-9-methyl-6H-1-thia-5,6,7,8,9a-pentaazacyclopent[e]azulen-6-ylmethyl]-pyridine-1-oxide], in test [1] (setting [6]), the IC50 is 2 µM.

Take `Cc1nnc2n1-c1ccc([N+](=O)[O-])cc1C(c1ccccc1)=NN2Cc1ccncc1` [Synthetic Example 102, 1-Methyl-8-nitro-6-phenyl-4-(pyridin-4-ymethyl)-4H-2,3,4,5,10b-pentaazabenz[e]azulene]: in test [3], the “Inhibtion (%) of plasma IL-6 production (10 mg/kg, p.o.)” value is listed as 78%. As to `Cc1nnc2n1-c1ccccc1C(c1ccccc1)=NN2Cc1ccc(C#N)cc1` [Synthetic Example 111, 4-(4-Cyanobenzyl)-1-methyl-6-phenyl-4H-2,3,4,5,10b-pentaazabenz[e]azulene], in test [3], the inhibition in vivo at 10 mg/kg is 62%. Still for that read-out and setting: then `Cc1ccc(C2=NN(Cc3ccncc3)c3nnc(C)n3-c3ccccc32)cc1` [Synthetic Example 103, 1-Methyl-6-(4-methylphenyl)-4-(pyridin-4-ylmethyl)-4H-2,3,4,5,10b-pentaazabenz[e]azulene], with 75%.

On to `COc1ccc(OC)c(N2C(=O)NC3(N=C(c4ccc(Cl)cc4)c4ccccc4-n4c(C)nnc43)C2=O)c1` (stereo not drawn) [compound 196], for which the IC50 in test [1] (setting [4]) worked out at 2.5 µM; in test [2] (setting [5]), 0.09 µM. For the compound `Cc1sc2c(c1C)C(c1ccc(Cl)cc1)=NN(Cc1cc[n+]([O-])cc1)c1nnc(C)n1-2` [Example 3, 4-[4-(4-Chlorophenyl)-2,3,9-trimethyl-6H-1-thia-5,6,7,8,9a-pentaazacyclopent[e]azulen-6-ylmethyl]-pyridine-1-oxide], the figures for the IC50 in test [1] (setting [6]) and in test [2] (setting [7]) were 0.2 µM and 0.05 µM, respectively. Regarding `Cc1sc2c(c1C)C(c1ccc(Cl)cc1)=NN(Cc1ccc(C#N)cc1)c1nnc(C)n1-2` [compound 115], the IC50 in test [1] (setting [4]) stood at 0.06 µM; in test [2] (setting [5]), 0.01 µM. On the same counts, the results for `Cc1nnc2n1-c1ccccc1C(c1ccccc1)=NN2Cc1ccc(C#N)cc1` [compound 111] are 0.4 µM and 0.07 µM. Turning to `COc1ccc(C2=NN(Cc3ccncc3)c3nnc(C)n3-c3sc(C)c(C)c32)cc1` [compound 129], the values for the IC50 in test [1] (setting [4]) and in test [2] (setting [5]) were 0.06 µM and 0.014 µM, respectively. With `Cc1cc2c(s1)-n1c(C)nnc1N(Cc1ccncc1)N=C2c1ccccc1` [Synthetic Example 121, 2,9-Dimethyl-4-phenyl-6-(pyridin-4-ylmethyl)-6H-5,6,7,8,9a-pentaazathieno[2,3-e]azulene], the inhibition in vivo at 10 mg/kg in test [3] was determined as 91%. For `Cc1nnc2n1-c1ccccc1C(c1ccc(Br)cc1)=NN2Cc1ccc(Br)cc1` [Synthetic Example 109, 4-(4-Bromobenzyl)-6-(4-bromophenyl)-1-methyl-4H-2,3,4,5,10b-pentaaabenz[e]azulene], the “Inhibtion (%) of plasma IL-6 production (10 mg/kg, p.o.)” value in test [3] came to 51%.

In the case of `Cc1cc2c(s1)-n1c(C)nnc1N(Cc1ccc(-c3nnn(C)n3)cc1)N=C2c1ccccc1` [Example 17, 2,9-dimethyl-4-phenyl-6-[4-(2-methyl-2H-tetrazol-5-yl)benzyl]-6H-5,6,7,8,9a-pentaazathieno[2,3-e]azulene], in test [2] (setting [7]), the IC50 came to 0.12 µM. With `Cc1nnc2n1-c1ccccc1C(c1ccc(Cl)cc1)=NC21NC(=O)N(c2ccccc2)C1=O` (stereo not drawn) [compound 197], the IC50 in test [1] (setting [4]) is > 10 µM; in test [2] (setting [5]) it was 0.3 µM.

Turning to `Cc1sc2c(c1C)C(c1ccc(Cl)cc1)=NN(Cc1ccncc1)c1nnc(C)n1-2` [compound 114], the IC50 in test [1] (setting [4]) is 0.01 µM; in test [2] (setting [5]), < 0.01 µM. For the compound `Cc1nnc2n1-c1ccccc1C(c1ccc(Cl)cc1)=NN2Cc1ccncc1` [compound 86], the figures for the IC50 in test [1] (setting [4]) and in test [2] (setting [5]) were 0.08 µM and 0.01 µM, respectively. On the same counts, the results for `Cc1sc2c(c1C)C(c1ccccc1Cl)=NN(Cc1ccncc1)c1nnc(C)n1-2` [compound 20] are 0.8 µM and 0.06 µM. Turning to `COc1ccc(CN2N=C(c3ccc(OC)cc3)c3c(sc(C)c3C)-n3c(C)nnc32)cc1` [compound 18], the IC50 in test [1] (setting [4]) is 0.008 µM; in test [2] (setting [5]), < 0.01 µM. On to `COC(=O)c1ccc(C2=NN(Cc3ccc(C#N)cc3)c3nnc(C)n3-c3ccccc32)cc1` [Example 7, Methyl 4-[4-(4-cyanobenzyl)-1-methyl-4H-2,3,4,5,10b-pentaazabenz[e]azulen-6-yl]benzoate], for which the IC50 in test [1] (setting [6]) amounted to 0.23 µM; in test [2] (setting [7]), 0.5 µM.

For the compound `CCOC(=O)C1(NC(=O)Nc2cc(OC)ccc2OC)N=C(c2ccc(Cl)cc2)c2ccccc2-n2c(C)nnc21` (stereo not drawn) [compound 199], the IC50 in test [1] (setting [4]) is 1.6 µM; in test [2] (setting [5]) it was 0.01 µM. For the compound `Cc1cc2c(s1)-n1c(C)nnc1N(Cc1ccncc1)N=C2c1ccccc1` [compound 121], the figures for the IC50 in test [1] (setting [4]) and in test [2] (setting [5]) were 0.04 µM and < 0.01 µM, respectively. Turning to `Cc1nnc2n1-c1ccccc1C(c1ccc(Cl)cc1)=NC2CC(=O)Nc1ccccc1` (stereo not drawn) [compound 195], the IC50 in test [1] (setting [4]) is 3.4 µM; in test [2] (setting [5]), 0.6 µM.

Turning to `Cc1nnc2n1-c1ccccc1C(c1ccc(NC(=O)OC(C)(C)C)cc1)=NN2Cc1ccc(C#N)cc1` [Example 13, tert-Butyl 4-[4-(4-cyanobenzyl)-1-methyl-4H-2,3,4,5,10b-pentaazabenz[e]azulen-6-yl]phenylcarbamate], the IC50 was 0.02 µM in test [1] (setting [6]) and < 0.01 µM in test [2] (setting [7]). As for `Cc1ccc(CN2N=C(c3ccc(Cl)cc3)c3ccccc3-n3c(C)nnc32)cc1` [compound 54], the IC50 in test [1] (setting [4]) is 0.01 µM; in test [2] (setting [5]), 0.02 µM. On the same counts, the results for `Cc1ccc(C2=NN(Cc3ccncc3)c3nnc(C)n3-c3ccccc32)cc1` [compound 103] are 0.11 µM and 0.001 µM. The matching figures for `Cc1cc2c(s1)-n1c(C)nnc1N(Cc1ccc(C#N)cc1)N=C2c1ccccc1` [compound 122]: < 0.01 µM and < 0.01 µM. As to `Cc1nnc2n1-c1ccccc1C(c1ccc(NC(=O)OC(C)(C)C)cc1)=NN2Cc1ccc([N+](=O)[O-])cc1` [Example 14, tert-Butyl 4-[1 methyl-4-(4-nitrobenzyl)-4H-2,3,4,5,10b-pentaazabenz[e]azulen-6-yl]phenylcarbamate], the IC50 was 0.02 µM in test [1] (setting [6]) and < 0.01 µM in test [2] (setting [7]). In the case of `CCc1cc2c(s1)-n1c(C)nnc1N(Cc1ccc(C#N)cc1)N=C2c1ccc(Cl)cc1` [compound 119], the IC50 in test [1] (setting [4]) and in test [2] (setting [5]) was < 0.01 µM throughout. Consider `Cc1nnc2n1-c1ccccc1C(c1ccc(Cl)cc1)=NC2NC(=O)NC1CCCCC1` (stereo not drawn) [compound 203], for which the IC50 in test [1] (setting [4]) was 5.7 µM; in test [2] (setting [5]), 0.2 µM. The matching figures for `Cc1ccc2c(c1)-n1c(C)nnc1N(Cc1ccc(C#N)cc1)N=C2c1ccc(Cl)cc1` [compound 108]: < 0.01 µM and < 0.01 µM. The matching figures for `CCc1cc2c(s1)-n1c(C)nnc1N(Cc1ccncc1)N=C2c1ccccc1` [compound 127]: 0.08 µM and < 0.01 µM. The matching figures for `Cc1nnc2n1-c1ccc([N+](=O)[O-])cc1C(c1ccccc1)=NN2Cc1ccncc1` [compound 102]: 1.15 µM and 0.05 µM.

`COc1ccc(OC)c(NC(=O)NC2N=C(c3ccc(Cl)cc3)c3ccccc3-n3c(C)nnc32)c1` (stereo not drawn) [compound 204]: the figures for the IC50 in test [1] (setting [4]) and in test [2] (setting [5]) were > 10 µM and 0.4 µM, respectively. The matching figures for `Cc1ccc2c(c1)-n1c(C)nnc1N(Cc1ccncc1)N=C2c1ccccc1` [compound 97]: 0.22 µM and 0.007 µM. The matching figures for `Cc1nnc2n1-c1ccccc1C(c1ccc(Br)cc1)=NN2Cc1ccc(Br)cc1` [compound 109]: < 0.01 µM and 0.07 µM.

Turning to `Cc1nnc2n1-c1ccccc1C(c1ccc(Cl)cc1)=NC2NC(=O)c1cc2ccccc2[nH]1` (stereo not drawn) [compound 205], the IC50 came to 3.9 µM in test [1] (setting [4]) and 0.01 µM in test [2] (setting [5]). On the same counts, the results for `Cc1nnc2n1-c1ccccc1C(c1ccc(Cl)cc1)=NN2Cc1ccc(C#N)cc1` [compound 39] are < 0.01 µM and < 0.01 µM.
